Reference: PubChem BioAssay (NCI)
“And” between values parts separate entries of the source, which are not always exact repeats. Equal entries are not always repeated.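 These data come from cells grown in 96-well plates and exposed to compound for 48 hours at five concentrations. GI50 is the concentration that inhibits growth by half. TGI: concentration producing complete growth inhibition.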

Tests used:
Assay in all cases: DTP human tumour cell line panel, 48 h
[1] = tested on: HCC-2998 colon
[2] = tested on: HOP-62 NSCLC
[3] = tested on: HS 578T breast
[4] = tested on: MOLT-4 leukemia
[5] = tested on: NCI-H460 lung
[6] = tested on: SK-MEL-2 melanoma
[7] = tested on: SN12C renal
[8] = tested on: T-47D breast
[9] = tested on: TK-10 renal
[10] = tested on: U251 CNS

Compound	GI50 [1]	TGI [1]	GI50 [2]	TGI [2]	GI50 [3]	TGI [3]	GI50 [4]	TGI [4]	GI50 [5]	TGI [5]	GI50 [6]	TGI [6]	GI50 [7]	TGI [7]	GI50 [8]	TGI [8]	GI50 [9]	TGI [9]	GI50 [10]	TGI [10]
Cc1cccc(Cl)c1NC(=O)c1cnc(Nc2cc(N3CCOCC3)cc(S(C)(=O)=O)c2)s1	> 2.53 µM	> 10 µM	0.198 µM	> 10 µM	0.138 µM	0.826 µM	5.71 µM	> 10 µM	> 9.52 µM	> 10 µM	> 10 µM	> 10 µM	0.455 µM	> 10 µM	0.292 µM	> 10 µM	0.132 µM	1.15 µM	> 5.57 µM	> 10 µM
CC(C)Cc1ccc(C(C)C(=O)NCc2ccc(Cn3c(=O)sn(CCCI)c3=O)cc2)cc1 (stereo not drawn)	1.75 µM	3.38 µM	1.53 µM	3.6 µM	0.653 µM	1.83 µM	0.511 µM	> 28.3 µM	1.36 µM	3.08 µM	1.34 µM	2.88 µM	0.646 µM	1.97 µM	1.64 µM	5.93 µM	0.373 µM	0.95 µM	1.43 µM	2.89 µM
Cc1ccc(OCCOCCOCCOCCOCCOc2ccc(C)n(O)c2=S)c(=S)n1O	0.444 µM	46.9 µM	0.0789 µM	> 84.6 µM	1.67 µM	74.6 µM	0.0422 µM	> 100 µM	0.0252 µM	11.6 µM	4.81 µM	40.5 µM	0.0496 µM	> 100 µM	0.0402 µM	> 100 µM	0.0826 µM	> 100 µM	0.0633 µM	> 100 µM
COc1ccc2c(c1)C(c1cc(OC)c3c(c1)OCO3)C1=C(COC1=O)N2 (stereo not drawn)	0.432 µM	–	0.397 µM	> 47.5 µM	0.214 µM	> 79.4 µM	0.51 µM	> 100 µM	0.348 µM	> 20.4 µM	0.347 µM	> 44.8 µM	0.684 µM	> 100 µM	6.67 µM	> 100 µM	–	> 77.2 µM	0.419 µM	> 47.9 µM
Cc1ccccc1C(C(=O)NC1CCCCC1)N(C(=O)CNc1ccc(C#N)cc1)c1cccc(F)c1 (stereo not drawn)	> 100 µM	> 100 µM	3.51 µM	14.4 µM	7.05 µM	67.4 µM	> 100 µM	> 100 µM	34.4 µM	> 100 µM	13.1 µM	32.5 µM	29.7 µM	> 100 µM	31.4 µM	> 100 µM	24 µM	71.7 µM	5.28 µM	> 100 µM
O=C1c2c(Cl)c(Cl)c(Cl)c(Cl)c2C(=O)C2(Cl)CC=CCC12Cl (stereo not drawn)	1.78 µM	3.3 µM	1.86 µM	3.65 µM	2.04 µM	5.88 µM	2.39 µM	6.36 µM	3.09 µM	11 µM	2.48 µM	4.89 µM	1.78 µM	3.22 µM	1.74 µM	4.01 µM	2.06 µM	3.57 µM	1.67 µM	3.06 µM
Oc1ccccc1/C=N\NC(=S)N/N=C/c1ccccc1O	3.62 µM	> 100 µM	4.22 µM	> 100 µM	10.7 µM	69.6 µM	1.43 µM	22.4 µM	0.62 µM	12.1 µM	13.4 µM	55.9 µM	3.09 µM	79.5 µM	3.19 µM	54.5 µM	4.62 µM	53.3 µM	1.07 µM	> 100 µM
CN(C)CCS(=O)(=O)Nc1cc(-c2ccc3ncc(C#N)c(Nc4ccc(F)c(Cl)c4)c3c2)cnc1Cl	0.198 µM	0.393 µM	0.248 µM	> 22.7 µM	0.127 µM	1.03 µM	0.12 µM	0.547 µM	0.612 µM	3.72 µM	0.173 µM	0.532 µM	0.232 µM	> 100 µM	0.0732 µM	0.65 µM	0.155 µM	0.762 µM	0.15 µM	0.746 µM
CNC(=O)c1cccc(C#Cc2cncnc2Nc2ccc(OCc3cccc(F)c3)c(Cl)c2)c1	9.15 µM	> 25 µM	5.03 µM	10.4 µM	7.47 µM	> 25 µM	> 25 µM	> 25 µM	5.04 µM	12.9 µM	8.82 µM	> 25 µM	12 µM	> 25 µM	3.18 µM	15.7 µM	1.46 µM	9.03 µM	4.47 µM	10.2 µM
C=CC(=O)N1CC[C@H](n2nc(C#Cc3cc(OC)cc(OC)c3)c3c(N)ncnc32)C1	17.2 µM	> 100 µM	5.43 µM	> 100 µM	1.71 µM	9.82 µM	5.02 µM	69.3 µM	9.97 µM	> 100 µM	8.49 µM	52.1 µM	4.43 µM	> 100 µM	5.22 µM	> 100 µM	4.03 µM	> 100 µM	6.38 µM	> 100 µM
COc1ccc(Cn2cc3c(c2-c2cc(OC)c(OC)c(OC)c2)CCc2c(CO)noc2-3)cc1	1.08 µM	19.2 µM	0.397 µM	25.7 µM	0.371 µM	35.8 µM	0.458 µM	27.8 µM	0.341 µM	13.6 µM	0.455 µM	19.5 µM	0.765 µM	19.2 µM	0.376 µM	59.3 µM	17.7 µM	55.2 µM	0.349 µM	15.5 µM
O=C(O)Cc1ccc(N=Nc2c(O)c(C(=O)O)cc3ccccc23)cc1	–	> 100 µM	–	> 100 µM	–	> 100 µM	–	> 100 µM	–	> 100 µM	–	> 100 µM	–	> 100 µM	–	> 100 µM	–	> 100 µM	–	> 100 µM
Cn1c(=O)c(Oc2ccc(F)cc2F)cc2cnc(NC3CCOCC3)nc21	> 25 µM	> 25 µM	> 25 µM	> 25 µM	> 14.3 µM	> 25 µM	> 25 µM	> 25 µM	> 25 µM	> 25 µM	> 25 µM	> 25 µM	> 25 µM	> 25 µM	> 25 µM	> 25 µM	18.6 µM	> 25 µM	> 25 µM	> 25 µM
CN1CCN(CCCN2c3ccccc3Sc3ccc(Cl)cc32)CC1	3.53 µM	10.3 µM	6.32 µM and 48.5 µM	13.6 µM and 85.6 µM	–	13.5 µM and 83.2 µM	3.8 µM	11.5 µM	–	11.4 µM and 80.5 µM	40.9 µM	59.5 µM	5.83 µM and 56.8 µM	12.8 µM	5.72 µM and 35.5 µM	13 µM and 62.6 µM	7.18 µM and 51.8 µM	14.1 µM and 89 µM	–	11.8 µM and 87.3 µM
CC1(C)CCC(C)(C)c2cc(NC(=O)c3ccc(C(=O)O)cc3)ccc21	–	> 60 µM	–	> 57.6 µM	–	> 83.5 µM	–	> 100 µM	–	> 62.7 µM	–	> 60.5 µM	–	93 µM	–	> 100 µM	–	85.3 µM	–	> 62.5 µM
C=CC(=O)Nc1cccc(Oc2nc(Nc3ccc(N4CCN(C)CC4)cc3OC)ncc2Cl)c1	1.72 µM	3.35 µM	3.01 µM	12.1 µM	1.86 µM	5.39 µM	2.57 µM	> 23.4 µM	3.49 µM	> 34.4 µM	2.19 µM	4.3 µM	1.84 µM	8.31 µM	2.87 µM	15.5 µM	0.513 µM	1.86 µM	1.49 µM	3.03 µM
C=C1C(=O)O[C@H]2[C@H]1CC/C(CNC(=O)/C=C/c1ccccc1F)=C\CC[C@@]1(C)O[C@@H]21	1.88 µM	3.59 µM	3.89 µM	16.6 µM	2.42 µM	16.9 µM	1.55 µM	4.86 µM	2.36 µM	6.19 µM	1.7 µM	3.52 µM	1.62 µM	4.41 µM	1.74 µM	4.53 µM	1.66 µM	3.25 µM	1.86 µM	3.75 µM
CN(C)Cc1c(C(=O)NCCOc2ccc(C(=O)NO)cc2)oc2ccccc12	0.22 µM	0.83 µM	0.247 µM	12.1 µM	0.158 µM	0.851 µM	0.114 µM	1.53 µM	0.221 µM	> 100 µM	0.243 µM	1.54 µM	0.459 µM	> 100 µM	0.163 µM	0.777 µM	0.185 µM	0.88 µM	0.229 µM	0.976 µM
CN(C)c1ccccc1[CH2][Ga]([Cl])[CH2]c1ccccc1N(C)C	1.23 µM	2.88 µM	1.21 µM	2.57 µM	1.28 µM	5.79 µM	0.927 µM	5.37 µM	1.76 µM	3.58 µM	1.13 µM	2.87 µM	1.31 µM	2.58 µM	1.39 µM	3.78 µM	2.16 µM	4.7 µM	1.16 µM	2.41 µM
COc1cc2c(c(OC)c1OC)-c1c(c3ccc([N+](=O)[O-])cc3c(=O)n1CCCN)C2=O	9.12 µM	17.6 µM	0.937 µM	1.73 µM	11.1 µM	31.4 µM	5.82 µM	14.2 µM	15.9 µM	> 50 µM	1.21 µM	2.77 µM	4 µM	11.5 µM	1.88 µM	7.85 µM	9.89 µM	18.7 µM	0.92 µM	1.75 µM
CCC1(c2ccc(N)cc2)CCC(=O)NC1=O (stereo not drawn)	–	> 5000 µM	–	> 1580 µM	–	> 5000 µM	–	> 3750 µM	–	> 5000 µM	–	> 5000 µM	–	> 5000 µM	–	> 4730 µM	–	4890 µM	–	> 4060 µM
Cn1cc(C2=C(c3cn(CCCCCO)c4ccccc34)C(=O)NC2=O)c2ccccc21	7.47 µM	> 20.6 µM	5.92 µM	15.6 µM	3.74 µM	17.5 µM	4.71 µM	16.6 µM	6.01 µM	14.8 µM	2.83 µM	8.15 µM	5.55 µM	19.5 µM	6.44 µM	16 µM	6.11 µM	16 µM	5.98 µM	> 17.3 µM
COc1ccc(NC(=O)c2ccc(NC3=C(Cl)C(=O)N(Cc4ccccc4)C3=O)cc2)c(OC)c1	10.1 µM	21.7 µM	19 µM	53.7 µM	> 100 µM	> 100 µM	9.94 µM	36.2 µM	38.4 µM	> 100 µM	25.7 µM	68.9 µM	29.2 µM	83.5 µM	38.9 µM	> 100 µM	22.8 µM	> 100 µM	27.2 µM	86.3 µM
CC(C)C(=O)c1c(C(F)(F)F)n([O-])c2ccccc2[n+]1=O	1.74 µM	4.04 µM	1.78 µM	3.49 µM	5.4 µM	18.1 µM	1.27 µM	9.65 µM	1.72 µM	5.56 µM	2.01 µM	5.58 µM	1.77 µM	3.97 µM	0.827 µM	3.49 µM	0.59 µM	2.07 µM	2.84 µM	> 33.2 µM
Nc1nn(C(=O)Nc2c(F)cccc2F)c2ccccc12	95.8 µM	> 100 µM	51 µM	> 100 µM	73 µM	> 100 µM	32.7 µM	> 100 µM	33.4 µM	> 100 µM	> 100 µM	> 100 µM	> 100 µM	> 100 µM	68.7 µM	> 100 µM	> 100 µM	> 100 µM	96.1 µM	> 100 µM
Cc1sc2c(c1C)C(c1ccc(Cl)cc1)=N[C@@H](CC(=O)NCCCN1CCN(C)CC1)c1nnc(C)n1-2	2.55 µM	> 100 µM	0.352 µM	> 100 µM	0.216 µM	> 22.7 µM	22.2 µM	> 100 µM	> 63.2 µM	> 100 µM	> 44.6 µM	> 100 µM	7.36 µM	> 100 µM	0.287 µM	> 100 µM	–	–	8.88 µM	> 100 µM
